Assay results published in patent US8445469B2, “18-methyl-19-nor-17-pregn-4-ene-21,17-carbolactones, as well as pharmaceutical preparations that contain the latter” (Bayer Intellectual Property GmbH, priority 2004, dated 2013).

Tested on: pregnancy maintenance (peripheral gestagenic activity)
Test: pregnancy maintenance test in ovariectomized rats
Type: in vivo, rat
Conditions: ovariectomized pregnant rats, subcutaneous once daily with estrone 5 μg/kg/day, day 8 to day 15 or 21
From the text: Executing the Pregnancy Maintenance Test in Rats:
In pregnant rats, removal of the corpora lutea or castration induces abortion. By exogenous supplying of progestins (gestagens) in combination with a suitable dose of estrogens, pregnancy can be maintained. The pregnancy maintenance test in ovariectomized rats serves to determine peripheral gestagenic activity of a compound.
Rats are paired up during the proestrus overnight. Mating is monitored on the morning of the following day by vaginal smear inspection. The presence of sperm is considered in this case as day 1 of the beginning of pregnancy. On day 8 of pregnancy, the animals are ovariectomized under ether anesthesia. […]
At the end of the test (day 15 or day 21), the animals are sacrificed under CO2 atmosphere, and live fetuses (fetuses with beating hearts) and implantation sites (early resorptions and dead fetuses including autolysis and atrophic placentas) in both uterine horns are counted. […] In uteri without fetuses or implantation sites, the number of nidation sites is determined by staining with 10% ammonium sulfide solution. The pregnancy maintenance rate is calculated as the quotient of the number of living fetuses and the total number of nidation sites (both resorbed and dead fetuses as well as nidation sites). […]

CCC12CCC3C4CCC(=O)C=C4C4CC4C3C1C1CC1C21CCC(=O)O1 (stereo not drawn) [compound 3a, 18-Methyl-6α,7α-15β,16β-dimethylene-3-oxo-19-nor-17-pregn-4-ene-21,17-carbolactone]
pregnancy-maintaining dose (ED50): 120 µg/kg/day
